Here are results for five molecules from ChEMBL document CHEMBL1201862, “PubChem BioAssay data set” (2004).

The target in test [1] is T1, Caspase-3 (Homo sapiens, UniProt P42574).
T1 sequence (P42574 whole entry): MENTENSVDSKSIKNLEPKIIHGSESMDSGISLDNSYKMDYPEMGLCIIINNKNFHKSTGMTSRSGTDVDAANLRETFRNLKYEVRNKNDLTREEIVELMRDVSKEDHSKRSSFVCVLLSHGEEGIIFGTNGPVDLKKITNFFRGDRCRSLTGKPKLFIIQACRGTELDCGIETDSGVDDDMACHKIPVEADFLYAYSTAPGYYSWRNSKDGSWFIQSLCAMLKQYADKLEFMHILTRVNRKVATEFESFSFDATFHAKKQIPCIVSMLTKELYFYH
It counts as functional.

The target of test [2] is T2, Sentrin-specific protease 7 (Homo sapiens, UniProt Q9BQF6).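 Note: Luminescence-based dose-response confirmation of ultra-high-throughput screening hits, measuring inhibition of SENP7.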
T2 sequence (Q9BQF6 whole entry): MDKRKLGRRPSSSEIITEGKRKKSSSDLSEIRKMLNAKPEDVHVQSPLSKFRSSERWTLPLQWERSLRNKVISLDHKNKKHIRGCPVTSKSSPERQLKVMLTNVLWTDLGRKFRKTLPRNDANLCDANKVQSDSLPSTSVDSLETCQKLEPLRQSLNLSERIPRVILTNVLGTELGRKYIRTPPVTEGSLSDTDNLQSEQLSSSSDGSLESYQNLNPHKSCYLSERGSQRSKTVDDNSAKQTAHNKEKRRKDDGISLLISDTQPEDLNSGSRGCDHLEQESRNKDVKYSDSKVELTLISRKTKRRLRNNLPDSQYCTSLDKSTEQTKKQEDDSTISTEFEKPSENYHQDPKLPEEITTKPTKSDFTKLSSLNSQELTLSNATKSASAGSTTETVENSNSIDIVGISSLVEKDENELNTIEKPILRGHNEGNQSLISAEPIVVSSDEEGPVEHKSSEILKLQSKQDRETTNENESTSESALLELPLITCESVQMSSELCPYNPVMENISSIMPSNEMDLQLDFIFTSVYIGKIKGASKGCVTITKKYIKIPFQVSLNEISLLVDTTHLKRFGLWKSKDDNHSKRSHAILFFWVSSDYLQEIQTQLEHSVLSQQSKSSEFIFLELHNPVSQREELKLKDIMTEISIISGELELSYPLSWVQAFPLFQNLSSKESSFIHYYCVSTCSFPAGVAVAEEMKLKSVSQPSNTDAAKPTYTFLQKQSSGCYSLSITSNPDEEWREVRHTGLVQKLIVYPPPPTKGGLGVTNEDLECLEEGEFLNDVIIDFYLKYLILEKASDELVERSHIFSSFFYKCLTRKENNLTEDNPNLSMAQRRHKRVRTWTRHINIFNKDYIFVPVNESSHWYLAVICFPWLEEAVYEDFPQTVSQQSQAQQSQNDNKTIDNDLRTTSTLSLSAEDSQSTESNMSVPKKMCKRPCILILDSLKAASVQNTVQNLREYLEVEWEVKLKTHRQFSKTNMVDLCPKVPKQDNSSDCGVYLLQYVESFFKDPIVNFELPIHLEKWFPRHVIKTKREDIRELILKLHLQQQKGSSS
It counts as functional.

Test [3] concerns the target T3, Sentrin-specific protease 6 (Homo sapiens, UniProt Q9GZR1).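 Note: Luminescence-based dose-response confirmatory assay of SENP6 inhibition, following up an ultra-high-throughput screen.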
T3 sequence (Q9GZR1 whole entry): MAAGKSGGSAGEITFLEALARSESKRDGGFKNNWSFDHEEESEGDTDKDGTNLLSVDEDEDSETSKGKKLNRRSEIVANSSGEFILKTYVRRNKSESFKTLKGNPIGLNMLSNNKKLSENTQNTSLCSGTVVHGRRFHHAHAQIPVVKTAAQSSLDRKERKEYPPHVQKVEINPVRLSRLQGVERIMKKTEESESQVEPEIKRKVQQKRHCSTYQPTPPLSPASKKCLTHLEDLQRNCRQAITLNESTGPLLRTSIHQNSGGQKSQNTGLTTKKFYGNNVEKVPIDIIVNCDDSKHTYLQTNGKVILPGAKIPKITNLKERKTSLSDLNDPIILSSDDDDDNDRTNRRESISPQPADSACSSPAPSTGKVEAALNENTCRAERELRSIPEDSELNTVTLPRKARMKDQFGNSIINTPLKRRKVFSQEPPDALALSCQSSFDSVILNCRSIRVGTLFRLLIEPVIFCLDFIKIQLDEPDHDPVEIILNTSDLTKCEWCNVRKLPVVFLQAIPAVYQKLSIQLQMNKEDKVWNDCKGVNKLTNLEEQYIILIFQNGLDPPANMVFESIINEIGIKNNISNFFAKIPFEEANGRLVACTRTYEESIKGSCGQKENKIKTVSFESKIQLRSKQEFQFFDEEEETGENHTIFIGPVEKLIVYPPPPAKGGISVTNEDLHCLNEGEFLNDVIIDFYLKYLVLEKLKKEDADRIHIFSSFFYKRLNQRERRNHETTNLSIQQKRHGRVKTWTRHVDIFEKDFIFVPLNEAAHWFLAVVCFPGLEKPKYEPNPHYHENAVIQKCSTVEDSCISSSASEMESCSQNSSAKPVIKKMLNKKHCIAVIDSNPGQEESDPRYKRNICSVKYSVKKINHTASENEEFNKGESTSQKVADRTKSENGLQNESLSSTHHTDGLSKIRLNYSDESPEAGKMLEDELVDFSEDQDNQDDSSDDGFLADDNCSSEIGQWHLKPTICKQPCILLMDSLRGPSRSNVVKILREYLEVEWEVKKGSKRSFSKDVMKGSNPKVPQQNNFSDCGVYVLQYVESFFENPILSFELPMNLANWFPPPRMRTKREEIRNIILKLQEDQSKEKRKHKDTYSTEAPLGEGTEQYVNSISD
The class given is functional.

Test [4] concerns the target T4, Sentrin-specific protease 8 (Homo sapiens, UniProt Q96LD8).
T4 sequence (Q96LD8 whole entry): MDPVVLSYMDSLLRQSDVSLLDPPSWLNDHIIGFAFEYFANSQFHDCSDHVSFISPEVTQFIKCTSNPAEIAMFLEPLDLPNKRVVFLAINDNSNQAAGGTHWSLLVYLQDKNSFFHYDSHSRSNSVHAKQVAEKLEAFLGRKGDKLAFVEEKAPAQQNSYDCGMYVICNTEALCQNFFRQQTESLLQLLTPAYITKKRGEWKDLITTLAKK
The class given is functional.

Test [5] addresses Botulinum neurotoxin type F (Clostridium botulinum, UniProt P30996). The experiment in a line: High-throughput multiplex microsphere dose response for inhibitors of toxin protease, specifically Botulinum neurotoxin light chain F protease, compounds from Cherry Pick 02. It counts as functional. The following applies: read-out: EC50_MICROM.
The test system of test [6] is Streptococcus sp. 'group A'. The experiment in a line: Streptococcus pyogenes SK(-)GAS viability under kanamycin – luminescence, BacTiterGlo, confirmation, counter-screen for streptokinase expression inhibitor project, dose response (AID 1900). It counts as functional, organism-based.
The next test has as its target T5, Streptokinase A (Streptococcus pyogenes serotype M1, UniProt P10520).
T5 sequence (P10520 whole entry): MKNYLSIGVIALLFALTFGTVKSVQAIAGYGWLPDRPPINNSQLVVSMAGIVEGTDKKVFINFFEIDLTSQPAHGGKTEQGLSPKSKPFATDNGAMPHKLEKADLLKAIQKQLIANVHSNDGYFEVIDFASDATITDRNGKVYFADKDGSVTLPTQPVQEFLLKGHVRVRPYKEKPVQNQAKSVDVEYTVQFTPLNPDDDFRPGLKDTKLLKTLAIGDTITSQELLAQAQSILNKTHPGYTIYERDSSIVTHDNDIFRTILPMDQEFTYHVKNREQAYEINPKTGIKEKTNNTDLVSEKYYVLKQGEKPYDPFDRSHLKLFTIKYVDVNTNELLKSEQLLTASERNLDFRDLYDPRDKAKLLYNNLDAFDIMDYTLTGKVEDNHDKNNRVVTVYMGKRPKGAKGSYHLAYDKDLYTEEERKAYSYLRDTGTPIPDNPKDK
The experiment in a line: viability-normalized secreted streptokinase activity reduction – plasminogen activation absorbance, OD405, dose response (AID 1914).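 Note: secreted streptokinase activity via plasminogen activation per viability signal from cell pellet.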 The class given is functional, Streptococcus pyogenes M1 GAS.

The next test relates to Streptococcus. The experiment in a line: GAS UMAA2166 growth inhibition – luminescence, BacTiterGlo, counter-screen for streptokinase expression inhibitor project, dose response (AID 1915).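 Note: potency for reduction of bacterial viability or growth.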 The class given is functional, organism-based.
Test [7] concerns the target Photoreceptor-specific nuclear receptor (Homo sapiens, UniProt Q9Y5X4). It counts as functional, cell-based.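 Note: CHO-S cells with Gal4-NCOR and VP16-NR2E3 two-hybrid luciferase reporter.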
The target of test [8] is T6, Sentrin-specific protease 1 (Homo sapiens, UniProt Q9P0U3). Kind of test: SENP1 catalytic domain blockers, concentration series – biochemical, kinetic FRET, dose response (AID 651697). The class given is functional. The following applies: read-out: IC50_Mean.
For test [9], the target named is T6, Sentrin-specific protease 1. Kind of test: Dose response confirmation of small molecule inhibitors of the catalytic domain of the SUMO protease, SENP1 in a FRET assay. The class given is functional. The following applies: read-out: IC50_Mean.
Test [10] concerns the target T7, Carboxy-terminal domain RNA polymerase II polypeptide A small phosphatase 1 (Homo sapiens, UniProt Q9GZU7).
T7 sequence (Q9GZU7 whole entry): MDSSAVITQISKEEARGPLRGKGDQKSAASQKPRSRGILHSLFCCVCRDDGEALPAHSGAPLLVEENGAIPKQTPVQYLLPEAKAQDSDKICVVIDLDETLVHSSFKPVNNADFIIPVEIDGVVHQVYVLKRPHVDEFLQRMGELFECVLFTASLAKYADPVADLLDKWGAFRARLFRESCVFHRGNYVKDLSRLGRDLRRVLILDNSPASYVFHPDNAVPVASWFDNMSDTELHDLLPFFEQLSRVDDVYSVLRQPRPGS
Kind of test: CTDSP1 inhibitors, concentration-response, biochemical, absorbance readout, ultra-high-throughput screen actives (AID 540297). The class given is functional.

The target of test [11] is ADP-ribosylation factor GTPase-activating protein 1 (Rattus norvegicus, UniProt Q62848). The experiment in a line: Fluorescence polarization-based biochemical high throughput dose response screening assay to identify inhibitors of ADP-ribosylation factor GTPase activating protein 1 (ARFGAP1). It counts as functional.
Test [12] deals with T4, Sentrin-specific protease 8. It counts as functional. This is another data set of the same source.
The target is the same in test [13]. The class given is functional. The source holds these as a separate data set.
Test [14] has as its target T1, Caspase-3. The experiment in a line: Dose-response confirmation of uHTS inhibitor hits of Sentrin-Specific Protease 8 in a Caspase-3 Fluorescence assay. It counts as functional.
A further test concerns the target T8, Caspase-6 (Homo sapiens, UniProt P55212).
T8 sequence (P55212 whole entry): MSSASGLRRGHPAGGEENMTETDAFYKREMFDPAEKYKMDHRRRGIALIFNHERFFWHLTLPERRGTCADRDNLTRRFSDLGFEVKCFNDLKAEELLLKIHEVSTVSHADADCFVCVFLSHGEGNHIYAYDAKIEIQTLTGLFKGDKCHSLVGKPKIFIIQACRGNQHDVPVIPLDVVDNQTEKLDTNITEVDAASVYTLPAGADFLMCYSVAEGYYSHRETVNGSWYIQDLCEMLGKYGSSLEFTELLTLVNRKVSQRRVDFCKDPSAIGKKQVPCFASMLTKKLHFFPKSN
The experiment in a line: inhibition of CASP6 peptide cleavage – biochemical, VEID-R110 fluorescence, cherry-pick, dose response (AID 720632).

The next test has as its target T9, Caspase-9 (Homo sapiens, UniProt P55211).
T9 sequence (P55211 whole entry): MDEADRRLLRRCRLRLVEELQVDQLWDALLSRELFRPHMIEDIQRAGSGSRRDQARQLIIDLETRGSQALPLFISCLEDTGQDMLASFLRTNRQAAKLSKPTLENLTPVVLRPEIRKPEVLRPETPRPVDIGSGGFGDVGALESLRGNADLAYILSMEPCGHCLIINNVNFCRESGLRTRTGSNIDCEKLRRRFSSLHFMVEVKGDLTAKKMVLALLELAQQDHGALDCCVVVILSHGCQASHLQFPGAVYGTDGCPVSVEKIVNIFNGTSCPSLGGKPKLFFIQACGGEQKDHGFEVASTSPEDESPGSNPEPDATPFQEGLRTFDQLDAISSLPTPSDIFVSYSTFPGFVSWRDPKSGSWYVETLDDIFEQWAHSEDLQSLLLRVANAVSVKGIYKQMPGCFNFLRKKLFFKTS
Kind of test: inhibitors of purified CASP9 protease – biochemical, fluorescence, plate reader, cherry-picked samples, selectivity assay for caspase-6 inhibitor project, dose response (AID 743293).

For another test, the target named is Caspase-7 (Homo sapiens, UniProt P55210). Kind of test: caspase-7 enzyme inhibition, selectivity check – biochemical, DEVD-R110 fluorescence, cherry-pick, selectivity assay for caspase-6 inhibitor project, dose response (AID 743295). The class given is functional.
The next test addresses Caspase-8 (Homo sapiens, UniProt Q14790). The experiment in a line: inhibitors of purified CASP8 protease – biochemical, Z-IETD-R110 fluorescence, cherry-picked samples, selectivity assay for caspase-6 inhibitor project, dose response (AID 743294).
Test [15] concerns the target T1, Caspase-3. Kind of test: human caspase-3 protease activity blockade – biochemical, fluorescence, cherry-picked samples, selectivity assay for caspase-6 allosteric inhibitor project, dose response (AID 743291).

Active and inactive are the calls of the source.

T6 sequence (Q9P0U3 whole entry, the tested form may be a part): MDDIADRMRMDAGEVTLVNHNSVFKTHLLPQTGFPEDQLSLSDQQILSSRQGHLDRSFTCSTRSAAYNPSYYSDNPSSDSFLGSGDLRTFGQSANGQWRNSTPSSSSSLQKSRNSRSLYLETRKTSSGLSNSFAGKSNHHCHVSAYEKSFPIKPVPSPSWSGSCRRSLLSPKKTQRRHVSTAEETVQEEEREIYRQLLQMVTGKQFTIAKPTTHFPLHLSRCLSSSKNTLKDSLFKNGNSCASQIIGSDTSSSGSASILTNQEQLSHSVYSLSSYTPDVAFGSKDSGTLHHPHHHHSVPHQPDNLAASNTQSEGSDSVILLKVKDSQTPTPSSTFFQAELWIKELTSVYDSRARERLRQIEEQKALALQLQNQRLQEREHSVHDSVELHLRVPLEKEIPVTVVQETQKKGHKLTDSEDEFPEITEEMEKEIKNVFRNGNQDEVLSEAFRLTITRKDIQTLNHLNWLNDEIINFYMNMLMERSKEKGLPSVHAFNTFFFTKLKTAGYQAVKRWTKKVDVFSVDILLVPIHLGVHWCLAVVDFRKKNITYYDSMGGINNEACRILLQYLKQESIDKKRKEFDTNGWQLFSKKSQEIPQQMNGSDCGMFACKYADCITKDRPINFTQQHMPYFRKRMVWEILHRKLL
Sequence of Caspase-8 (Q14790 217-374 limits assumed): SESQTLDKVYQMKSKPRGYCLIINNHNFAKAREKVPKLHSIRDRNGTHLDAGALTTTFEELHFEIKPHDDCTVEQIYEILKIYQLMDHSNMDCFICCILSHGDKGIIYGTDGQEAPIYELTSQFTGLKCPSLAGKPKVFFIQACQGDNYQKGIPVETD
Sequence of Caspase-8 (Q14790 385-479 limits assumed): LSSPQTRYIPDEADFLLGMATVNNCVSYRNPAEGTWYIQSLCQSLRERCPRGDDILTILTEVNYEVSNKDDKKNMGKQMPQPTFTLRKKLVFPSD
Sequence of Photoreceptor-specific nuclear receptor (Q9Y5X4 whole entry, the tested form may be a part): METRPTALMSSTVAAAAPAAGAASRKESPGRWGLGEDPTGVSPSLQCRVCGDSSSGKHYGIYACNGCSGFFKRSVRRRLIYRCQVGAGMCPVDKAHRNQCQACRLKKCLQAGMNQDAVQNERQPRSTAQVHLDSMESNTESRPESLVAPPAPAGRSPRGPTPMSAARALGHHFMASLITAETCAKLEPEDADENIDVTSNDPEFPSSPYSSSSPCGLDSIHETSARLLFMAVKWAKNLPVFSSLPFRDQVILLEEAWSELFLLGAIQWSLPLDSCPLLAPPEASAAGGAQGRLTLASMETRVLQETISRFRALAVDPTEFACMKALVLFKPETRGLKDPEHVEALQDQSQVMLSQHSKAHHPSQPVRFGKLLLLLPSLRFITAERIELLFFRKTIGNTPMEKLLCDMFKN
Sequence of ADP-ribosylation factor GTPase-activating protein 1 (Q62848 whole entry): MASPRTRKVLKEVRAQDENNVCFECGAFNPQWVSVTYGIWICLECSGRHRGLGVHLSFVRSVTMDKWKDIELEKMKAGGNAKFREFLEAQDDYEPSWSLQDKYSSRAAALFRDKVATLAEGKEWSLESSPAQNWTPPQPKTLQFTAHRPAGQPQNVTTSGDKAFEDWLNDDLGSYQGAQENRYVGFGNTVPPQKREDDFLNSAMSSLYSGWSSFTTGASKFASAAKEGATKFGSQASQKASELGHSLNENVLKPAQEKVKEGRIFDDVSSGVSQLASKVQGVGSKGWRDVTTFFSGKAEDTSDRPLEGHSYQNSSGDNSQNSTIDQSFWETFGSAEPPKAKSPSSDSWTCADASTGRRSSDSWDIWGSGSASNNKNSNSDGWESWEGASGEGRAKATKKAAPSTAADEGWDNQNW
Sequence of Caspase-7 (P55210 24-198 limits assumed): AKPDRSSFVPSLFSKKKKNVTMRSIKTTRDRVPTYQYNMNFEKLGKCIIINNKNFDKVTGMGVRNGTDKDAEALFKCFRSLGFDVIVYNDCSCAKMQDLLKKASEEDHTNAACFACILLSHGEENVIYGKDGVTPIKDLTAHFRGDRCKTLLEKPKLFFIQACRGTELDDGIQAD
Sequence of Caspase-7 (P55210 207-303 limits assumed): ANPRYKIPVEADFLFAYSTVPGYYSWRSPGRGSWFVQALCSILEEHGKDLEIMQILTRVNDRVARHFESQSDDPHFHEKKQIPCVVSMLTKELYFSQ
Sequence of Botulinum neurotoxin type F (P30996 1-436 limits assumed): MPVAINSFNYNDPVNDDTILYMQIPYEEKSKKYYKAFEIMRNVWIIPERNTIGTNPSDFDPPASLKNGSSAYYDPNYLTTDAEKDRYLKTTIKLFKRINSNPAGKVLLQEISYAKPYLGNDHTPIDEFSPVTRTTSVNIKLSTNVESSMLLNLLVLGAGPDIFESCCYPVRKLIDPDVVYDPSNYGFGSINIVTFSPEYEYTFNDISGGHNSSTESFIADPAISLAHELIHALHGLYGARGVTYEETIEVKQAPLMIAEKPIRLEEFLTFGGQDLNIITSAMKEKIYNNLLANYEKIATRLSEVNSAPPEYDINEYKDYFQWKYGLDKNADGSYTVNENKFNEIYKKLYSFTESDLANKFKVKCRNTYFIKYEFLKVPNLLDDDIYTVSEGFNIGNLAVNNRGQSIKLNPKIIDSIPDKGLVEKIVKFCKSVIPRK

Consider `CCc1cccc2c(C(=O)COC(=O)c3ccccc3)c[nH]c12`, for which the IC50 on Caspase-3 [1] is 49.9 µM (active); in [2], 4.08 µM (active); in test [3], > 100 µM (inactive); in test [4], > 100 µM (inactive). The EC50 in [5] is > 20 µM (inactive).
As to `CCN(c1ccccc1)S(=O)(=O)c1ccc(C(=O)Nc2nnc(CSC)o2)cc1`, the EC50 is 3.5 µM (active) in [6], > 150 µM (not active) at Streptokinase A and 15 µM (active) in the test on Streptococcus. The IC50 in [7] is 8.64 µM (active).
`N#Cc1ccc(-c2nc3ccc(Cl)cn3c2Cc2ccccc2C(F)(F)F)cc1`: the figures for the IC50 in [8] and in [9] were 9.87 µM (active) and 8.47 µM (active), respectively.
As to `O=C(N/N=C/c1sc(=O)n(Cc2ccc(Br)cc2)c1Cl)c1ccco1`, the IC50 in test [10] was 3.55 µM (active); in test [11] it was 34.3 µM (inactive).
As to `CC[C@H](CO)Oc1cc(NCc2cccc(N)c2)c2ncn(C(C)C)c2c1`, the IC50 in test [12] is 1.65 µM (active); in [13] it was 1.87 µM (active); at Caspase-3 [14], 8.35 µM (active). The AC50 on Caspase-6 is 1.58 µM (active); at Caspase-9, 46.5 µM (active); at Caspase-7 it was 4.66 µM (active); at Caspase-8, 31.8 µM (active); on Caspase-3 [15] it was 3.87 µM (active).
